Experimental data published in a compilation of properties of binary mixtures (doi:10.1016/j.molliq.2017.03.027).

Assay: xn = mol fraction of the nth substance listed
Conditions: 100 kPa

CCCC[n+]1ccn(C)c1.O=S(=O)([N-]S(=O)(=O)C(F)(F)F)C(F)(F)F + CS(C)=O
x2 = 0
Conditions | speed of sound [m/s] | viscosity [mPa·s]
298.15 K | 1227.5 | 49.6
308.15 K | 1205.5 | 33.25
313.15 K | 1193.5 | 28
323.15 K | 1171.3 | 20.39

CS(C)=O + CCCC[n+]1ccn(C)c1.O=S(=O)([N-]S(=O)(=O)C(F)(F)F)C(F)(F)F
Conditions | speed of sound [m/s] | viscosity [mPa·s]
298.15 K, x1 = 0.0951 | 1232.7 | 40.36
298.15 K, x1 = 0.2074 | 1239.8 | 33.72
298.15 K, x1 = 0.2885 | 1246 | 28.98
298.15 K, x1 = 0.4003 | 1257.9 | 22.18
298.15 K, x1 = 0.5026 | 1269.8 | 17.18
298.15 K, x1 = 0.7066 | 1299.3 | 8.91
298.15 K, x1 = 0.8039 | 1329 | 5.97
298.15 K, x1 = 0.9012 | 1384.8 | 3.51
298.15 K, x1 = 1 | 1490.5 | 2.03
303.15 K, x1 = 0.0951 | 1221.2 | 32.94
303.15 K, x1 = 0.2074 | 1228.1 | 27.62
303.15 K, x1 = 0.4003 | 1245.8 | 18.3
303.15 K, x1 = 0.5903 | 1267.6 | 11.04
303.15 K, x1 = 0.7066 | 1286.2 | 8.01
303.15 K, x1 = 0.8039 | 1315.2 | 5.17
303.15 K, x1 = 0.9012 | 1369.9 | 3.15
303.15 K, x1 = 1 | 1473.6 | 1.84
308.15 K, x1 = 0.0951 | 1209.8 | 26.98
308.15 K, x1 = 0.2074 | 1216.8 | 22.9
308.15 K, x1 = 0.2885 | 1222.7 | 19.59
308.15 K, x1 = 0.4003 | 1233.9 | 15.42
308.15 K, x1 = 0.5026 | 1245.1 | 11.71
308.15 K, x1 = 0.7066 | 1273.2 | 6.73
308.15 K, x1 = 0.8039 | 1301.4 | 4.62
308.15 K, x1 = 0.9012 | 1355 | 2.84
313.15 K, x1 = 0.2885 | 1211.1 | 17.04
313.15 K, x1 = 0.4003 | 1221.8 | 13.35
313.15 K, x1 = 0.5026 | 1232.9 | 10.62
313.15 K, x1 = 0.7066 | 1260.2 | 5.96
313.15 K, x1 = 0.8039 | 1287.7 | 4.17
313.15 K, x1 = 0.9012 | 1340.2 | 2.57
318.15 K, x1 = 0.0951 | 1187.5 | 19.53
318.15 K, x1 = 0.2074 | 1194.2 | 16.67
318.15 K, x1 = 0.2885 | 1199.7 | 14.57
318.15 K, x1 = 0.4003 | 1210.1 | 11.47
318.15 K, x1 = 0.5026 | 1220.8 | 8.84
318.15 K, x1 = 0.5903 | 1229.8 | 7.4
318.15 K, x1 = 0.7066 | 1247.2 | 5.63
318.15 K, x1 = 0.8039 | 1274.4 | 3.71
318.15 K, x1 = 0.9012 | 1325.4 | 2.33
318.15 K, x1 = 1 | 1423.3 | 1.41
323.15 K, x1 = 0.0951 | 1176.3 | 16.81
323.15 K, x1 = 0.2074 | 1182.9 | 14.37
323.15 K, x1 = 0.2885 | 1188.1 | 12.56
323.15 K, x1 = 0.4003 | 1198.2 | 9.96
323.15 K, x1 = 0.5026 | 1208.5 | 7.69
323.15 K, x1 = 0.5903 | 1217.3 | 6.39
323.15 K, x1 = 0.7066 | 1233.9 | 5.01
323.15 K, x1 = 0.8039 | 1260.4 | 3.32
323.15 K, x1 = 1 | 1406.7 | 1.3

CCCC[n+]1ccn(C)c1.O=S(=O)([N-]S(=O)(=O)C(F)(F)F)C(F)(F)F + CO
Conditions | speed of sound [m/s] | viscosity [mPa·s]
298.15 K, x2 = 0 | 1227.5 | 49.6
298.15 K, x2 = 0.2068 | 1218.3 | 34.37
298.15 K, x2 = 0.295 | 1213.6 | 28.65
298.15 K, x2 = 0.4004 | 1208.6 | 22.3
298.15 K, x2 = 0.4923 | 1202 | 17.55
298.15 K, x2 = 0.5956 | 1191.3 | 12.55
298.15 K, x2 = 0.7947 | 1159.2 | 5.11
298.15 K, x2 = 0.8978 | 1134.4 | 1.7
303.15 K, x2 = 0.2068 | 1206.7 | 28.28
303.15 K, x2 = 0.295 | 1202.3 | 23.6
303.15 K, x2 = 0.4923 | 1190.3 | 14.6
303.15 K, x2 = 0.5956 | 1180 | 10.52
303.15 K, x2 = 0.7056 | 1164.1 | 6.79
303.15 K, x2 = 0.7947 | 1146.7 | 4.38
303.15 K, x2 = 0.8978 | 1121.2 | 1.55
308.15 K, x2 = 0 | 1205.5 | 33.25
308.15 K, x2 = 0.0986 | 1201.6 | 28.87
308.15 K, x2 = 0.2068 | 1196 | 23.61
308.15 K, x2 = 0.295 | 1192.5 | 19.98
308.15 K, x2 = 0.4004 | 1186.7 | 15.74
308.15 K, x2 = 0.4923 | 1179.1 | 12.56
308.15 K, x2 = 0.5956 | 1169.2 | 9.2
308.15 K, x2 = 0.7056 | 1152.6 | 5.97
308.15 K, x2 = 0.7947 | 1134.5 | 3.97
308.15 K, x2 = 0.8978 | 1108.1 | 1.42
313.15 K, x2 = 0 | 1193.5 | 28
313.15 K, x2 = 0.0986 | 1190.8 | 24.53
313.15 K, x2 = 0.2068 | 1184.4 | 20.1
313.15 K, x2 = 0.295 | 1180.8 | 17.14
313.15 K, x2 = 0.4004 | 1175.5 | 13.55
313.15 K, x2 = 0.4923 | 1168 | 10.82
313.15 K, x2 = 0.5956 | 1158.3 | 8.03
313.15 K, x2 = 0.7056 | 1141.2 | 5.28
313.15 K, x2 = 0.7947 | 1122.6 | 3.54
313.15 K, x2 = 0.8978 | 1095.2 | 1.31
318.15 K, x2 = 0 | 1183.5 | 23.75
318.15 K, x2 = 0.2068 | 1173.6 | 17.22
318.15 K, x2 = 0.4004 | 1164.9 | 11.7
318.15 K, x2 = 0.5956 | 1147.7 | 7.01
318.15 K, x2 = 0.7947 | 1110.5 | 3.13
318.15 K, x2 = 0.8978 | 1082.2 | 1.21
323.15 K, x2 = 0 | 1171.3 | 20.39
323.15 K, x2 = 0.0986 | 1169.3 | 18.1
323.15 K, x2 = 0.2068 | 1162.4 | 14.96
323.15 K, x2 = 0.295 | 1160 | 12.89
323.15 K, x2 = 0.4004 | 1154.4 | 10.31
323.15 K, x2 = 0.4923 | 1146.6 | 8.33
323.15 K, x2 = 0.5956 | 1137.2 | 6.21
323.15 K, x2 = 0.7947 | 1098.7 | 2.81

CO + CCCC[n+]1ccn(C)c1.O=S(=O)([N-]S(=O)(=O)C(F)(F)F)C(F)(F)F
x1 = 1
Conditions | speed of sound [m/s] | viscosity [mPa·s]
298.15 K | 1103.3 | 0.55
303.15 K | 1086.9 | 0.51
308.15 K | 1070.6 | 0.48
313.15 K | 1054.5 | 0.45
318.15 K | 1038.5 | 0.42
323.15 K | 1022.5 | 0.41
